{"source": "patent US12059429B2", "about": "“Hornerin: a novel non-VEGF mediated angiogenic protein expressed in both human and mouse angiogenic endothelial cells and human pancreatic cancer cells” (University of Virginia Patent Foundation, priority 2018, dated 2024)", "assay_type_in_all_cases": "in vivo, mouse", "key": {"hornerin transcript": {"system": "hornerin transcript", "experiment": "qPCR of hornerin transcript in FACS-sorted CD31+CD45- tumor endothelial cells", "details": "vs Scr siRNA, 20 hours after injection", "procedure": "Day 10 tumors were injected with either Scr siRNA or Hrnr siRNA and excised 20 hours later. The tumors were immediately washed in PBS (+Mg/+Ca), minced with scalpels, treated with Collagenase Type II (Worthington Biochemical Corporation, Lakewood, NJ, USA; (2.0 mg/mL) serum-free DMEM, 100 minutes at 37° C.), and filtered through a 40 μm cell strainer. The cell suspension (filtrate) was incubated with the following antibody/dye panel for FACS; anti-CD45 AF488 (1:100; Biolegend, San Diego, CA, USA, 103121, clone 30-F11), anti-CD31 AF647 (1:100; Biolegend, 102415, clone 390), LIVE/DEAD violet stain (1:200; Thermo Fisher). Flow cytometry analysis was completed on the Cyan ADP LX (Beckman Coulter). Compensation and data analysis was completed using FlowJo software (Ashland, OR, USA). […]\nRNA was isolated from FACS-sorted CD31^+CD45^− cells according to the manufacturer's protocol (Qiagen mini-prep kit), and concentration and purity were determined using a NanoDrop Spectrophotometer (Thermo Fisher). Complimentary DNA (cDNA) was generated (Qiagen QuantiTect Reverse Transcription Kit) and subjected to pre-amplification (SsoAdvanced PreAmp Supermix, Bio-Rad). […] Melt curve analysis was performed on the hornerin and cyclophilin primer sets prior to data collection and normalized gene expression was determined by the delta delta Ct method."}, "hornerin": {"system": "hornerin", "experiment": "Immunofluorescent microscopy of hornerin protein in tumor sections", "details": "vs Scr siRNA", "procedure": "Tumor sections were deparaffinized, rehydrated, heated in antigen retrieval solution (Vector), blocked for 30 minutes in blocking buffer, and incubated with anti-CD34 antibody (Abcam, ab8158, clone MEC14.7; 1:100) in blocking buffer overnight at 4° C. The sections were then incubated with goat anti-rat FITC secondary antibody (Abcam, ab6840; 1:100) in blocking buffer prior to mounting with Prolong Gold Antifade reagent (Invitrogen). Anti-actin, α-smooth muscle Cy3 antibody (Sigma, C6198, clone 1A4; 1:200) was added to the primary antibody solution if assaying for alpha-smooth muscle actin. […] Images were collected using a Nikon TE 2000-E2 microscope (Nikon Instruments) equipped with a Melles Griot Argon Laser System (Melles Griot, Carlsbad, CA, USA) and a Nikon D-Eclipse C1 confocal attachment and analyzed by Measurement Tool in Image J. To measure the relative hornerin expression in tumor vessels, three vessel segments per image were isolated and their mean intensity and area were measured and recorded. A weighted mean intensity was calculated to correct for differences in selected area. To measure the relative hornerin expression in tumor tissue, the mean intensity from three square sections (75×75 pixel) of tumor tissue per image was measured and recorded."}, "tumor vascularity": {"system": "tumor vascularity", "experiment": "DCE-MRI and Ktrans measurement of L3.6pl tumors", "procedure": "To assess the in vivo function of tumor vascularity, DCE-MRI was performed on a 7.0 T Clinscan small animal imaging system (Bruker, Ettlingen, Germany) using a 30 mm inner-diameter birdcage radiofrequency coil. Mice (N=7) were imaged prior to treating tumors with Hrnr and Scr siRNA and again 6 days after treatment. Mice treated with the VEGFR inhibitor AV-951 (N=5) were image pre-siRNA treatment and 6 days posttreatment. Mice were anesthetized with 1.25% isoflurane anesthesia, which was maintained during imaging. Respiration and ECG were monitored during imaging using an MRI-compatible system (SA Instruments, Stony Brook, NY, USA). An indwelling tail vein catheter was established for administration of the gadolinium contrast agent Gd-DTPA, which is required in DCE imaging. Mice were placed supine in the imaging system, and body temperature was maintained at 36° C.±1° C. using circulating, temperature controlled water. Tumors were localized using a spin-echo imaging sequence, and an imaging plane that transected both tumors was chosen for DCE imaging.\nA dual-Gd-bolus DCE-MRI acquisition strategy (Christian et al., 2004) was employed, which uses a low dose of contrast agent to accurately acquire the undistorted Gd concentration vs. time curve in the blood pool and a higher dose of contrast agent to acquire the Gd concentration vs. time curve in the tumor with high signal-to-noise ratio, since Gd-DTPA is known to have signal saturation effects at high doses in the blood pool (Christian et al., 2004). […]"}}, "data": [{"substance": "5′-GCAUGGAUCUUGUUGCGGUTT-3′ [Hrnr siRNA]", "values": [{"measurement": "reduction in hornerin transcript", "setting": "hornerin transcript", "result": 78, "unit": "%"}, {"measurement": "decrease in hornerin expression in endothelial cells", "setting": "hornerin; CD34+ tumor vessels", "result": 30, "unit": "%"}, {"measurement": "hornerin expression in epithelial cells from tumors", "setting": "hornerin", "result": "no difference"}, {"measurement": "tumor concentration of Gd-DTPA", "setting": "tumor vascularity; after 6 days of siRNA injection every other day, vs Scr siRNA", "result": "two-fold reduced"}, {"measurement": "reduction in Ktrans", "setting": "tumor vascularity; after 6 days of siRNA injections, vs control", "result": 2.4, "unit": "fold"}]}]}
